Experimental data published in PMC12766721, “Regio- and Stereoselective Halogenation by an Iron(II)- and 2‑Oxoglutarate-Dependent Halogenase in the Biosynthesis of Halogenated Nucleosides” (Journal of the American Chemical Society, 2025).
pKd: −log10 of the molar value.

Biological target: AdeV
Assay: stopped-flow absorption kinetics (substrate-dependent formation of the […] nm chloro-ferryl feature), with freeze-quench Mössbauer and LC–MS turnover of purified enzyme
Assay type: biochemical, Actinomadura sp. ATCC 39365

pKd: ~1.55
Compound: Nc1ncnc2c1ncn2[C@H]1C[C@H](O)[C@@H](COP(=O)(O)O)O1 [compound 1, 2′-deoxyadenosine monophosphate]
